For test [1], the system named is Cryptococcus neoformans ATCC 90113. The experiment in a line: Antimicrobial microdilution assay against Cryptococcus neoformans (modified CLSI/NCCLS, optical density). It is filed as cell-based. The following applies: for X more potent than Amphotericin B: C. neoformans, ratio of molar IC50 to Amphotericin B; for C. neoformans IC50 / IC50: in vitro, C. neoformans ATCC 90113; for IC50: read-out: C. neoformans IC50 (mol/L). In outline: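 Broth microdilution (modified CLSI) in RPMI pH 6.0, samples serially diluted in 20% DMSO/saline and tested in duplicate, growth followed by OD630 before and after incubation. MFC is the lowest concentration giving no growth when 5 μL from clear wells is plated on agar.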
A general note: In broth dilution the organism is exposed to a series of concentrations in liquid medium.

Test [2] concerns L. donovani promastigotes. Description: Antileishmanial Alamar Blue assay on promastigotes. Type of test: cell-based, Leishmania donovani. The following applies: for X more potent than Pentamidine: L. donovani, ratio of molar IC50 to Pentamidine; for L. donovani IC50 / IC50: promastigotes, 48 hours, Alamar Blue; for IC50: read-out: L. donavani IC50. In outline:
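L. donovani promastigotes in RPMI 1640 with 10% FCS, from 3-day culture, were set at 5×10^5/mL and exposed to compound (50-3.1 μg/mL) for 48 hours at 26° C. Growth read by Alamar Blue fluorescence (ex 544/em 590 nm); IC50 from percent growth versus concentration.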
On the technique in general: The colour change of resazurin is a common sign of viable cells or microbes.

For test [3], the system named is Staphylococcus aureus ATCC 29213. Description: Antibacterial broth dilution assay against S. aureus (modified CLSI). As to conditions: for S. aureus IC50 / IC50: in vitro; for IC50: converted with molecular weight; for X more potent than ciprofloxacen: molar IC50 ratio versus ciprofloxacen. Type of test: cell-based. As for the experimental part:
(§1) General Experimental Procedures. All organisms were obtained from the American Type Culture Collection (Manassas, VA) and include the fungi Candida albicans ATCC 90028, C. glabrata ATCC 90030, C. krusei ATCC 6258, and Cryptococcus neoformans ATCC 90113, and the bacteria Staphylococcus aureus ATCC 29213 and methicillin-resistant S. aureus ATCC 33591 (MRS). All organisms were tested using modified versions of the CLSI (formerly NCCLS) methods. For all organisms, optical density was used to monitor growth (NCCLS, Reference Method for Broth Dilution Antifungal Susceptibility Testing of Yeasts; Approved Standard M27-A2. National Committee on Clinical Laboratory Standards, 2002 22 (15); and NCCLS, Methods for Dilution Antimicrobial Susceptibility Tests for Bacteria that Grow Aerobically; Approved Standard, Seventh Edition M7-A7. National Committee on Clinical Laboratory Standards, 2006. 26(2)).
(§2) Samples (dissolved in DMSO) were serially-diluted in 20% DMSO/saline and transferred (10 μL) in duplicate to 96 well flat bottom microplates. Inocula were prepared by correcting the OD630 of microbe suspensions in incubation broth [RPMI 1640/0.2% dextrose/0.03% glutamine/MOPS @ pH 6.0 (Cellgro) for Candida spp., Sabouraud Dextrose for C. neoformans, and cation-adjusted Mueller-Hinton (Difco) @ pH 7.3 for Staphylococcus spp. to afford an assay volume of […] and final target inocula of: Candida spp. and C. neoformans: 1.5×10^3, and Staphylococcus spp.: 5.0×10^5 CFU/ml. Final sample test concentrations were 1/100th the DMSO stock concentration. […] All organisms were read at either 530 nm using the Biotek Powerwave XS plate reader (Bio-Tek Instruments, Vermont) prior to and after incubation: Candida spp. at 35° C. for 46-50 h, Staphylococcus spp. at 35° C. for 16-20 h, and C. neoformans at 35° C. for 70-74 h. IC50s (concentrations that afford 50% inhibition relative to controls) were calculated using XLfit 4.2 software (IDBS, Alameda, CA) using fit model 201. The MIC is defined as the lowest test concentration that allows no detectable growth. Minimum fungicidal or bactericidal concentrations were determined by removing 5 μl from each clear (or blue) well, transferring to fresh media, and incubating as previously mentioned. The MFC/MBC is defined as the lowest test concentration that kills the organism (allows no growth).
(§3) Primary Analysis. Samples were tested in duplicate at one test concentration (50 μg/mL), and percent inhibitions were calculated relative to blank and growth controls. Samples showing 50% inhibition in at least one test organism were selected for dose response (Secondary) studies.
(§4) Secondary Analysis. Extracts from the Primary Assay, and first-run pure compounds and column fractions were tested in duplicate at 3 test concentrations (5-fold dilutions). Samples dissolved to 20 mg/mL in DMSO were tested at 200, 40, and 8 μg/mL. Samples dissolved to 2 mg/mL in DMSO were tested at 20, 4, and 0.8 μg/mL.

A further test deals with C. glabrata ATCC 90030. The experiment in a line: Antifungal broth dilution assay against C. glabrata (modified CLSI). Type of test: cell-based, Candida glabrata. The following applies: for C. glabrata IC50 / IC50: in vitro; for IC50: converted with molecular weight; for X more potent than Amphotericin B: molar IC50 ratio versus amphotericin B. As for the experimental part:
as §1, §2, §3, §4

Take “[Zn2(m-cyclam-homocyclen)(OAc)2][PF6]2 [AW052B]”: in test [1], the “X more potent than Amphotericin B” value is 0.23, the “C. neoformans IC50” value was determined as 1.150 µg/mL and the IC50 was determined as 1.04 µM. Further, in test [2], the “X more potent than Pentamidine” value turned out to be 0.33, the “L. donovani IC50” value was 17.60 µg/mL and the IC50 worked out at 15.9 µM. In test [3], the “S. aureus IC50” value turned out to be 6.580 µg/mL, the IC50 was determined as 5.94 µM and the “X more potent than ciprofloxacen” value is reported as 0.05.
Turning to `O.[Cl][Fe-2]([Cl])([Cl])[Cl].[Fe+2].c1ccc(CN2CCCN3CCCN(CCCN(Cc4ccccc4)CC3)CC2)cc1` [BME09, [Fe(Bn2PBCyclam)][FeCl4]•H2O], in test [1], the “X more potent than Amphotericin B” value was determined as 0.15, the “C. neoformans IC50” value stood at 1.070 µg/mL and the IC50 amounted to 1.55 µM. In test [2], the “X more potent than Pentamidine” value is on record as 0.26, the “L. donovani IC50” value is 14.10 µg/mL and the IC50 came to 20.4 µM. Moreover, in test [3], the “S. aureus IC50” value is 5.130 µg/mL, the IC50 came out at 7.41 µM and the “X more potent than ciprofloxacen” value came out at 0.04.
For `CC(=O)[O-].F[P-](F)(F)(F)(F)F.[Co+2].c1ccc(CN2CCN3CCCN(CC2)CCN(Cc2ccccc2)CC3)cc1` [AW038, [Co(Bn2PBCyclen)(C2H3O2)]PF6], in the test with C. glabrata ATCC 90030, the “C. glabrata IC50” value worked out at 5.800 µg/mL, the IC50 was found to be 8.85 µM and the “X more potent than Amphotericin B” value amounted to 0.16. Besides, in test [1], the “X more potent than Amphotericin B” value was found to be 0.04, the “C. neoformans IC50” value is 4.370 µg/mL and the IC50 was 6.67 µM. In test [2], the “X more potent than Pentamidine” value is reported as 0.17, the “L. donovani IC50” value amounted to 20.66 µg/mL and the IC50 stood at 31.5 µM. Besides, in test [3], the “S. aureus IC50” value is 5.080 µg/mL, the IC50 was 7.75 µM and the “X more potent than ciprofloxacen” value is 0.04.
As to `Clc1cc(CN2CCN3CCN(CCN(Cc4ccc(CN5CCN6CCN(CC5)CCN(Cc5cc(Cl)nc(Cl)c5)CC6)cc4)CC3)CC2)cc(Cl)n1` [PW111A, p-dcp2-CB-cyclens], in test [1], the “X more potent than Amphotericin B” value is 4.88, the “C. neoformans IC50” value was 0.040 µg/mL and the IC50 was determined as 0.0488 µM. Moreover, in test [2], the “X more potent than Pentamidine” value is listed as 0.34, the “L. donovani IC50” value was determined as 12.89 µg/mL and the IC50 was found to be 15.7 µM. For the same molecule, in test [3], the “S. aureus IC50” value came to 5.530 µg/mL, the IC50 stood at 6.75 µM and the “X more potent than ciprofloxacen” value is on record as 0.04.
As to “[Co2(p-SB-cyclam-cyclen)(OAc)2][PF6]2 [CMB016A]”, in the test with C. glabrata ATCC 90030, the “C. glabrata IC50” value came to 1.100 µg/mL, the IC50 came out at 1.04 µM and the “X more potent than Amphotericin B” value is listed as 1.36. Besides, in test [1], the “X more potent than Amphotericin B” value is 0.16, the “C. neoformans IC50” value stood at 1.570 µg/mL and the IC50 was 1.49 µM. Moreover, in test [2], the “X more potent than Pentamidine” value is reported as 0.17, the “L. donovani IC50” value was determined as 33.81 µg/mL and the IC50 turned out to be 32.1 µM.
Consider `CC(=O)[O-].CC(=O)[O-].[Cu+2].c1ccc(CN2CCCN3CCCN(CCCN(Cc4ccccc4)CC3)CC2)cc1` [DJD20, Cu(Bn2PBCyclam)(OAc)2], for which, in test [1], the “X more potent than Amphotericin B” value worked out at 0.05, the “C. neoformans IC50” value is 3.130 µg/mL and the IC50 stood at 5.2 µM. Also, in test [2], the “X more potent than Pentamidine” value is on record as 0.22, the “L. donovani IC50” value was determined as 14.65 µg/mL and the IC50 was found to be 24.3 µM. Further, in test [3], the “S. aureus IC50” value stood at 6.880 µg/mL, the IC50 was found to be 11.4 µM and the “X more potent than ciprofloxacen” value was 0.02.
